Here are results for 3 molecules from patent publication US5536740A, “Skin care compositions containing dimethyl imidazolidinone and retinol or retinyl ester” (priority 1995, dated 1996).

Structures are written as SMILES. “Also recorded” adds a separate entry of the source. Like-named read-outs stand apart in the source and are kept apart here.

The subject of assay [1] is Human keratinocytes. Nature of the assay: 3H-thymidine incorporation assay of keratinocyte proliferation. The assay is classed as cell-based. The conditions noted are these: for mean Thymidine incorp/μg protein ± s.d / mean Thymidine incorp./μg protein ± s.d / activity at 0.25 µM / activity at 0.025 µM / activity at 0.0025 µM: 24 hours. As to the method: (§1) Human keratinocytes, isolated from neonatal foreskin by trypsin treatment were grown in Dulbecco Modification Eagle (DME) Hams F12 (1:1) medium/10% fetal calf serum in the presence of irradiated 3T3 mouse fibroblasts for establishing dividing keratinocyte colonies. Cells were grown under the above condition until their second passage and kept frozen for future use. […] On day 7, when the cells were 80-90% confluent, they were trypsinized and plated in the serum-free medium for the various experiments.
^3 H-Thymidine Incorporation and Keratinocyte Proliferation
The incorporation of ^3 H-thymidine by cultured keratinocytes was used as an assay of keratinocyte proliferation. Thymidine is one of four deoxynucleosides which are the monomeric units of DNA, the universal library of genetic information in the animal kingdom. Prior to cell division of a somatic cell such as a keratinocyte, the complete genome of the cell undergoing cell division is replicated. This involves large scale DNA synthesis by the cell and enables both daughter cells to receive identical copies of the genetic material. When ^3 H-thymidine is included in the culture media of keratinocytes which are synthesizing DNA in preparation for cell division then the labelled nucleoside is incorporated into the newly synthesized DNA. The extent of incorporation of ^3 -thymidine into a population of cells is proportional to the rate of DNA synthesis by this population of cells and therefore an indication of their cellular proliferation.
Keratinocytes (that were cultured as described above) were plated in 24 well plates at a density of 40,000 cells per well in 1 ml media. After incubation for four days or until the cells were 60-70% confluent, the media was changed. Test compounds were added (in triplicate) to the wells 24 hours after the media change, and four hours later 1 μCi^3 H-Thymidine in 50 μl media was added per well. Cells were incubated for a further 24 hours. Media was removed from the cells, 10% ice cold trichloroacetic acid (TCA) added and plates were incubated on ice for 30 minutes. Cells were washed five times with 5% TCA and allowed to dissolve in 500 μl 0.1M NaOH for at least one hour (usually overnight). The preparations were neutralized with 0.1M HCl; 50 μl of the cell preparation was used to determine total protein content. Disintegrations per minute (DPM) from a H labelling of DNA was determined by liquid scintillation counting of 900 μl of the cell preparation. Thymidine incorporation results were expressed as DPM/μg protein.
(Dividing cells build labelled thymidine or BrdU into new DNA.)

In assay [2] the test system is TGase I in human keratinocytes. Nature of the assay: ELISA based transglutaminase I (TGase I) assay of keratinocyte differentiation. The class given is cell-based. On the procedure: as §1
Transglutaminase Assay and Keratinocyte Differentiation
During the process of terminal differentiation in the epidermis, a 15 nm thick layer of protein, known as the cornified envelope (CE) is formed on the inner surface of the cell periphery. The CE is composed of numerous distinct proteins which have been cross-linked together by the formation of N^ε -(γ-glutamyl)lysine isodipeptide bonds catalyzed by the action of at least two different transglutaminases (TGases) expressed in the epidermis. TGase 1 is expressed in abundance in the differentiated layers of the epidermis, especially the granular layer, but is absent in the undifferentiated basal epidermis. Thus TGase I is a useful marker of epidermal keratinocyte differentiation with high TGase I levels indicating a more differentiated state. An ELISA based TGase I assay, using a TGase I antibody, was used to assess the state of differentiation of the cultured keratinocytes in the examples that follow.
Keratinocytes (cultured as described above) were plated in 96 well plates at a density of 3,000 cells per well in 200 μl media. After incubation for four days the media was changed to media containing test compounds (six replicates per test). The cells were cultured for a further 72 hours after which time the media was aspirated and the plates stored at -70° C. Plates were removed from the freezer, and the cells washed with PBS. 100 μl sterile water was added and the cells were freeze fractured by freezing at -70° C. then thawing. The cells were incubated for one hour at room temperature (R/T) with PBS/3% BSA (wash buffer, bovine serum albumin), then rinsed with a fresh aliquot of wash buffer. Cells were incubated with 50 μl of primary antibodies monoclonal anti-human transglutaminase (IgG) obtained from Amersham (mouse) diluted 1:300 in wash buffer for one hour, 37° C. then rinsed two times with wash buffer. Cells were then incubated with 50 μl of secondary antibody (Feb fragment, peroxidase conjugated anti-mouse IgG obtaining from Amersham) diluted 1:200 in wash buffer for one hour at 37° C., then rinsed two times with wash buffer. Cells were incubated with substrate solution (4 mg o-phenylene diamine and 3.3 μl 30% H2 O2 in 10 ml 0.1M citrate buffer pH 5.0) for five minutes, R/T, in darkness (under aluminum foil). The reaction was stopped by the addition of 50 μl 4N […]. The absorbance of samples was read at 492 nm in the plate reader. Out of the six replicates, four were treated with both antibodies, two were treated only with the secondary antibody (i.e., to determine background binding of enzyme conjugated Ab). TGase levels were determined by subtracting background from the readings from each treatment and determining mean ±s.d. for the replicates exposed to both Ab.
The level of TGase-1 was normalized to DNA content of the cells in the same well thus eliminating variation due to differences in cell number. DNA quantitation is a particularly useful indicator of cell number, including keratinocyte cell number, because each cell has to all intents and purposes an identical genome and therefore an identical quantity of DNA. The total DNA content of a well of cells therefore is directly proportional to the cell number in that well. Quantitation of DNA was used to normalize the TGase data to cell number.
Keratinocytes were plated in 96 well plates at a density of 3,000 cells per well in […] media.
On the technique in general: ELISA stands for enzyme-linked immunosorbent assay.

Setting [3] is: 2.5 × 10^-8 M, n = 3 (Examples 1-3).
The mark [4] stands for this setting: Example 4, 2.5 × 10^-8 M, n = 3.
[5] abbreviates: Homo sapiens, Keratinocyte, 2.5 × 10^-7 M, n = 3, read-out: mean Thymidine incorp./μg protein (% control).
The mark [6] stands for this setting: Homo sapiens, Keratinocyte, 2.5 × 10^-8 M, n = 3 (Examples 1-3), read-out: mean Thymidine incorp./μg protein (% control).
Where [7] appears, read: Homo sapiens, Keratinocyte, 2.5 × 10^-9 M, n = 3, read-out: mean Thymidine incorp./μg protein (% control).
Setting [8] is: 2.5 × 10^-7 M, normalized to DNA, 72 hours, n = 3.
The mark [9] stands for this setting: 2.5 × 10^-8 M, normalized to DNA, 72 hours, n = 3.
Setting [10] is: 2.5 × 10^-9 M (ROH line printed 2.5 × 10^-0 M), normalized to DNA, 72 hours, n = 3.
The mark [11] stands for this setting: Homo sapiens, Keratinocyte, 72 h, 2.5 × 10^-7 M, normalized to DNA, 72 hours, n = 3, read-out: mean TGase/DNA (% control).
[12] abbreviates: Homo sapiens, Keratinocyte, 72 h, 2.5 × 10^-8 M, normalized to DNA, 72 hours, n = 3, read-out: mean TGase/DNA (% control).
[13] abbreviates: Homo sapiens, Keratinocyte, 72 h, 2.5 × 10^-9 M (ROH line printed 2.5 × 10^-0 M), normalized to DNA, 72 hours, n = 3, read-out: mean TGase/DNA (% control).

On to `CN1CCN(C)C1=O` [Dimethyl imidazolidinone, 1,3-dimethyl-2-imidazolidinone], for which the “effect on keratinocyte proliferation (in words)” value in assay [1] is reported as “had no effect on keratinocyte proliferation on its own; also recorded: exerts little or no benefit”. For the same molecule, the “mean Thymidine incorp/μg protein ± s.d” value came to 1892 ± 119 DPM/μg protein in assay [1] (10^-6 M, n = 3); 2260 ± 166 DPM/μg protein in assay [1] (10^-7 M, n = 3 (Example 3)); 2003 ± 128 DPM/μg protein in assay [1] (10^-9 M, n = 3); 3214 ± 128 DPM/μg protein in assay [1] (Example 4, 10^-7 M, n = 3). Besides, in assay [1] (Homo sapiens, Keratinocyte, 24 h, read-out: mean Thymidine incorp/μg protein (% control), 10^-6 M, 24 hours, n = 3), the activity at 1 µM was found to be 90%. Further, the activity at 0.1 µM in assay [1] (Homo sapiens, Keratinocyte, 24 h, read-out: mean Thymidine incorp/μg protein (% control), 10^-7 M, 24 hours, n = 3 (Example 3)) is 108%; in assay [1] (Homo sapiens, Keratinocyte, 24 h, read-out: mean Thymidine incorp/μg protein (% control), Example 4, 10^-7 M, 24 hours, n = 3), 92%. Besides, the activity at 0.001 µM in assay [1] (Homo sapiens, Keratinocyte, 24 h, read-out: mean Thymidine incorp/μg protein (% control), 10^-9 M, 24 hours, n = 3) was determined as 96%. The “effect on keratinocyte TGase level / differentiation (in words)” value in assay [2] is reported as “had no effect on keratinocyte TG1 levels”. In assay [2] (Example 4, 10^-8 M, n = 3), the “mean TGase ± s.d” value was 0.990 ± 0.251. In addition, in assay [2] (Homo sapiens, Keratinocyte, 72 h, read-out: mean TGase (% control)), the activity at 0.01 µM is 99%.

As to `CC1=C(/C=C/C(C)=C/C=C/C(C)=C/C(=O)O)C(C)(C)CCC1` [RA, retinoic acid, reference compound], the “mean Thymidine incorp./μg protein ± s.d” value is 2475 ± 116 DPM/μg protein in assay [1] (2.5 × 10^-7 M, n = 3); 2686 ± 72 DPM/μg protein in assay [1] (setting [3]); 2556 ± 80 DPM/μg protein in assay [1] (2.5 × 10^-9 M, n = 3). Besides, in assay [1] (setting [4]), the “mean Thymidine incorp/μg protein ± s.d” value amounted to 3691 ± 205 DPM/μg protein. Moreover, the activation at 0.025 µM in assay [1] (Homo sapiens, Keratinocyte, read-out: increase in keratinocyte thymidine incorporation over the 2.5×10^-8 M retinol treatment, Example 2, 2.5×10^-8 M) is 28%; in assay [1] (Homo sapiens, Keratinocyte, read-out: increase in keratinocyte thymidine incorporation over the 2.5×10^-8 M retinyl palmitate treatment, Example 4, 2.5×10^-8 M), 6%; in assay [1] (Homo sapiens, Keratinocyte, read-out: increase in keratinocyte thymidine incorporation over the ethanol control, Example 2, 2.5×10^-8 M), 28%; in assay [1] (Homo sapiens, Keratinocyte, read-out: increase in keratinocyte thymidine incorporation over the ethanol control, Example 4, 2.5×10^-8 M) it was 6%. The activity at 0.25 µM in assay [1] (setting [5]) is 118%; in assay [2] (setting [11]) it was 7%. The activity at 0.025 µM was found to be 128% in assay [1] (setting [6]); 106% in assay [1] (Homo sapiens, Keratinocyte, Example 4, 2.5 × 10^-8 M, n = 3, read-out: mean Thymidine incorp/μg protein (% control)); 55% in assay [2] (setting [12]); 16% in assay [2] (Homo sapiens, Keratinocyte, 72 h, Example 4, 2.5 × 10^-8 M, n = 3, read-out: mean TGase (% control)). Also, the figures for the activity at 0.0025 µM in assay [1] (setting [7]) and in assay [2] (setting [13]) were 122% and 77%, respectively. Also, the “effect on keratinocyte proliferation (in words)” value in assay [1] (listed as Retinoic acid) is “increased keratinocyte proliferation”; in assay [1] (listed as retinoic acid), “significantly increased keratinocyte proliferation over both the ethanol control and each of the 2.5×10^-7 M, 2.5×10^-8 M and 2.5×10^-9 M retinol treatments and they did so in a dose dependant manner”. Besides, the “mean TGase/DNA × 10^-4 ± s.d” value in assay [2] (setting [8]) is given as 0.16 ± 0.11 × 10^-4; in assay [2] (setting [9]) it was 1.34 ± 0.40 × 10^-4; in assay [2] (setting [10]), 1.87 ± 0.49 × 10^-4. The “mean TGase ± s.d” value in assay [2] (setting [4]) is given as 0.155 ± 0.098. The “mean TGase (% control)” value in assay [2] (Example 4, 2.5 × 10^-8 M, n = 3, 0.025 µM, 4320 min) was determined as 15%. Besides, the “effect on keratinocyte TGase level / differentiation (in words)” value in assay [2] (listed as Retinoic acid) was “decreased keratinocyte differentiation”; in assay [2] (listed as retinoic acid), “decreased keratinocyte TGase level over both the ethanol control and did so to a significantly greater extent than each of the corresponding 2.5×10^-7 M, 2.5×10^-8 M and 2.5×10^-9 M retinol treatments”.

`CC1=C(/C=C/C(C)=C/C=C/C(C)=C/CO)C(C)(C)CCC1` [ROH, Retinol]: in assay [1], the “effect on keratinocyte proliferation (in words)” value is “completely ineffective at increasing keratinocyte proliferation”. In addition, the “mean Thymidine incorp./μg protein ± s.d” value in assay [1] (2.5 × 10^-7 M, n = 3) is on record as 2218 ± 73 DPM/μg protein; in assay [1] (2.5 × 10^-7 M, n = 3, listed as Retinol), 2218 ± 79 DPM/μg protein; in assay [1] (setting [3]), 2034 ± 46 DPM/μg protein; in assay [1] (2.5 × 10^-9 M, n = 3) it was 1977 ± 19 DPM/μg protein. Also, the activity at 0.25 µM in assay [1] (setting [5]) was determined as 106%; in assay [2] (setting [11]) it was 47%. For the same molecule, the activity at 0.025 µM came to 97% in assay [1] (setting [6]) and 77% in assay [2] (setting [12]). The figures for the activity at 0.0025 µM in assay [1] (setting [7]) and in assay [2] (setting [13]) were 94% and greater than 100%, respectively. In addition, the “mean TGase/DNA × 10^-4 ± s.d” value in assay [2] (setting [8]) is recorded as 1.14 ± 0.22 × 10^-4; in assay [2] (setting [9]), 1.89 ± 0.30 × 10^-4; in assay [2] (setting [10]), 2.70 ± 0.59 × 10^-4. The “effect on keratinocyte TGase level / differentiation (in words)” value in assay [2] (listed as Retinol) was “significantly less effective than retinoic acid at inhibiting keratinocyte differentiation”; in assay [2] (listed as retinol), “The decrease in transglutaminase level was dose dependant for both retinoic acid and retinol”.
